Data set [1] can be described thus: Measurement of Log P values by HPLC on reversed phase columns (EEC directive 79/831 Annex V.A8). Type of data set: physicochemical. Particulars: reversed phase HPLC column, method [a]: LC-UV, acidic range, 0.1% formic acid in water and acetonitrile as eluent. The procedure, abridged: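 Reversed-phase HPLC with UV detection per EEC 79/831 Annex V.A8, linear 10–95% acetonitrile gradient. Aqueous eluent: 0.1% formic acid (acidic), 0.001 M ammonium acetate (neutral), or 0.1% phosphoric acid (acidic); multiple values in one method joined by "+".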

Data set [2] relates to Pyrenophora teres. In words: B-10. Pyrenophora teres in vitro cell test. Type of data set: cell-based. Particulars: 144 h, 20 ppm of active ingredient, 6 days incubation, liquid culture, absorbance, read-out: efficacy (inhibition of fungal growth). The procedure, abridged: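 Liquid-culture assay on a P. teres spore suspension with compounds added to the medium from DMSO solutions, final DMSO ≤1%. Mycelium growth read spectrometrically after 6 days. Inhibition calculated from absorbance against untreated control wells.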

The test system of data set [3] is Botrytis cinerea. In words: B-11. Botrytis cinerea in vitro cell test. Format: cell-based. Particulars: 144 h, 20 ppm of active ingredient, 6 days incubation, liquid culture, absorbance, read-out: efficacy (inhibition of fungal growth). In a few lines: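 B. cinerea spores were grown in liquid culture with compound (DMSO ≤1% final). Mycelium growth was measured spectrometrically after 6 days, with inhibition taken as absorbance relative to untreated control wells.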

For data set [4], the system named is Botrytis cinerea. In words: In vivo preventive test on Botrytis cinerea (grey mould). The conditions noted are these: 500 ppm of active ingredient, preventive spray on gherkin or cabbage, evaluated 4 to 5 days after inoculation, read-out: efficacy. The procedure, abridged: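 Young gherkin or cabbage plants were sprayed with compound in DMSO/acetone/Tween 80 diluted in water, then inoculated 24 hours later with a B. cinerea spore suspension. Incubation lasted 4 to 5 days: gherkin at 17° C., 90% relative humidity; cabbage at 20° C., 100% relative humidity.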

For data set [5], the system named is Sphaerotheca fuliginea. As to the kind of experiment: In vivo preventive test on Sphaerotheca fuliginea (powdery mildew on cucurbits). The conditions noted are these: Podosphaera fuliginea, 192 h; 500 ppm of active ingredient; preventive spray on gherkin; evaluated 8 days after inoculation; read-out: efficacy. Here is the method:
B-4. in vivo preventive test on Sphaerotheca fuliginea (powdery mildew on cucurbits) [table] The active ingredients were made soluble and homogenized in a mixture of Dimethyl sulfoxide/Acetone/Tween® 80 and then diluted in water to the desired concentration. The young plants of gherkin were treated by spraying the active ingredient prepared as described above. Control plants were treated only with an aqueous solution of Acetone/Dimethyl sulfoxide/Tween® 80. After 24 hours, the plants were contaminated by spraying the leaves with an aqueous suspension of Sphaerotheca fuliginea spores. The contaminated gherkin plants were incubated for 8 days at 20° C. and at 70-80% relative humidity.

Data set [6] relates to Colletotrichum lindemuthianum. In words: B-8. Colletotrichum lindemuthianum in vitro cell test. Format: cell-based. Particulars: 144 h, 20 ppm of active ingredient, 6 days incubation, liquid culture, absorbance, read-out: efficacy (inhibition of fungal growth). In a few lines:
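Spore suspension of C. lindemuthianum in liquid medium exposed to DMSO-solubilized compounds (final DMSO ≤1%) for 6 days. Mycelial growth read by absorbance, with inhibition calculated relative to compound-free control wells.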

In data set [7] the test system is Alternaria brassicae. In words: In vivo preventive test on Alternaria brassicae (leaf spot on radish or cabbage). Particulars: 500 ppm of active ingredient, preventive spray on radish or cabbage, evaluated 3 to 4 days after inoculation, read-out: efficacy. The procedure, abridged: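 Young radish or cabbage plants were sprayed with compound dissolved in DMSO/acetone/Tween 80 and diluted in water; controls received solvent only. Inoculation by spraying A. brassicae spore suspension 24 h later, then 3–4 days at 20 °C and 100% relative humidity.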

Data set [8] relates to Alternaria alternata. In words: Alternaria alternata in vitro cell test. Type of data set: cell-based. The conditions noted are these: 120 h, 20 ppm of active ingredient, liquid culture, 5 days incubation, spectrometric measurement of mycelium growth, read-out: efficacy (inhibition of fungal growth). The procedure, abridged:
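Liquid culture assay in which A. alternata spores in medium received DMSO-solubilized compound (final DMSO ≤1%). After 5 days, mycelium growth was measured spectrometrically. Inhibition was calculated against fungicide-free control wells.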

The subject of data set [9] is Colletotrichum lindemuthianum. In words: In vivo preventive test on Colletotrichum lindemuthianum (leaf spot on bean). Particulars: 168 h, 500 ppm of active ingredient, preventive spray on bean, evaluated 7 days after inoculation, read-out: efficacy. The procedure:
B-5. In Vivo Preventive Test on Colletotrichum lindemuthianum (Leaf Spot on Bean) [table] The active ingredients were made soluble and homogenized in a mixture of Dimethyl sulfoxide/Acetone/Tween® 80 and then diluted in water to the desired concentration. The young plants of bean were treated by spraying the active ingredient prepared as described above. Control plants were treated only with an aqueous solution of Acetone/Dimethyl sulfoxide/Tween® 80. After 24 hours, the plants were contaminated by spraying the leaves with an aqueous suspension of Colletotrichum lindemuthianum spores. The contaminated bean plants were incubated for 24 hours at 20° C. and at 100% relative humidity and then for 6 days at 20° C. and at 90% relative humidity.

The structures appear in SMILES notation.

`Cc1ccc2c(c1)CCC[C@@H]2NC(=O)c1c(Oc2cccc(C(F)(F)F)c2)nnc2ccccc12` (racemic) [I-078] showed a chromatographic logP in data set [1] of 4.47. The inhibition at 20 ppm in data set [2], in [3], in data set [6] and in data set [8] was 90 to 100% in each case. In addition, the pest or weed control at 500 ppm in [4], in [5] and in data set [7] was 90 to 100% each time.
`Cc1ccc(C(F)(F)CNC(=O)c2c(Oc3cccc(C(F)(F)F)c3)c(C)nc3ccccc23)c(C)c1` [I-185] showed a chromatographic logP in [1] of 4.59. For the same compound, the inhibition at 20 ppm in data set [2] fell in the range of 90 to 100%; in data set [8] it was 80 to 89%. The pest or weed control at 500 ppm in [5] lay within 90 to 100%; in data set [7], 70 to 79%.
Regarding `Cc1ccc(C(F)(F)CNC(=O)c2c(Oc3cccc(Br)c3F)cnc3ccccc23)c(C)c1` [I-225], in data set [1], the chromatographic logP amounted to 4.43. Further, the inhibition at 20 ppm in [2], in [3], in data set [6] and in data set [8] was 90 to 100% in each case. Besides, the pest or weed control at 500 ppm was in the range of 90 to 100% in data set [4], 90 to 100% in [5] and 70 to 79% in [7].
Regarding `COc1cc([C@@H](F)CNC(=O)c2c(Oc3cccc(Cl)c3)nnc3ccccc23)ccc1Cl` (racemic) [I-050], the pest or weed control at 500 ppm in [9] was 80 to 89%; in data set [4], 80 to 89%; in data set [7], 90 to 100%. The chromatographic logP in data set [1] amounted to 3.77. Further, the inhibition at 20 ppm in data set [3], in data set [6] and in [8] was 90 to 100% in each case.
Take `Cc1cc(Br)ccc1[C@@H](F)CNC(=O)c1c(Oc2cccc(C(F)(F)F)c2)cnc2ccccc12` (racemic) [I-063]: in data set [1], the chromatographic logP was 4.59. The inhibition at 20 ppm in data set [3], in [6] and in data set [8] was 90 to 100% throughout. Also, the pest or weed control at 500 ppm in [4], in [5] and in data set [7] was 90 to 100% each time.
In turn, `Cc1ccc(CCNC(=O)c2c(Oc3cccc(C(F)(F)F)c3)nnc3ccc(F)cc23)c(C)c1` [I-006] had a chromatographic logP in data set [1] of 4.46. Further, the inhibition at 20 ppm in [3], in [6] and in data set [8] was 90 to 100% each time. Also, the pest or weed control at 500 ppm in data set [4], in [5] and in data set [7] was 90 to 100% throughout.
For the compound `C=Cc1cccc(Oc2cnc3ccccc3c2C(=O)NCC(F)(F)c2ccc(C)cc2C)c1` [I-221], the pest or weed control at 500 ppm in data set [9] was in the range of 70 to 79%; in data set [4], 90 to 100%; in data set [7], 90 to 100%. This compound showed a chromatographic logP in [1] of 4.4. Besides, the inhibition at 20 ppm in data set [2], in data set [3], in [6] and in [8] was 90 to 100% each time.
As for `Cc1cc(C(F)F)ccc1[C@@H](F)CNC(=O)c1c(Oc2cccc(C(F)(F)F)c2)cnc2ccccc12` (racemic) [I-057], in data set [1], the chromatographic logP was determined as 4.08. The inhibition at 20 ppm in data set [3], in data set [6] and in data set [8] was 90 to 100% throughout. In addition, the pest or weed control at 500 ppm in [4], in data set [5] and in [7] was 90 to 100% throughout.
Consider `Cc1ccc(C(F)(F)CNC(=O)c2c(Oc3cccc(C(F)(F)F)c3)nnc3cc(F)ccc23)cc1C` [I-175], for which the pest or weed control at 500 ppm in data set [9] was 80 to 89%; in data set [7], 90 to 100%. The chromatographic logP in data set [1] turned out to be 4.62. Besides, the inhibition at 20 ppm in data set [2], in data set [3], in data set [6] and in data set [8] was 90 to 100% in each case.
On to `O=C(c1c(Oc2cccc(C(F)(F)F)c2)nnc2ccccc12)N(O)CCc1ccc(Cl)cc1` [I-167], for which the pest or weed control at 500 ppm in data set [9] lay in the range of 80 to 89%; in [4], 70 to 79%; in data set [7], 90 to 100%. The same compound displayed a chromatographic logP in [1] of 3.84. Also, the inhibition at 20 ppm was 90 to 100% in data set [2], 90 to 100% in data set [3] and 80 to 89% in data set [6].
Take `O=C(NC[C@H](F)c1ccc(C2CC2)cc1Cl)c1c(Oc2cccc(C(F)(F)F)c2)cnc2ccccc12` (racemic) [I-062]: the chromatographic logP in [1] was 4.7. The inhibition at 20 ppm in data set [3], in [6] and in data set [8] was 90 to 100% each time. The pest or weed control at 500 ppm in data set [4], in [5] and in data set [7] was 90 to 100% throughout.
`Cc1ccc(C(F)(F)CNC(=O)c2c(Oc3cccc(C(F)(F)F)c3)nnc3c2CCC3(C)C)c(C)c1` [I-232] gave a chromatographic logP in [1] of 4.85. The results for the inhibition at 20 ppm in data set [2], in data set [3] and in data set [6] were 90 to 100%, 90 to 100% and 70 to 79%, respectively. The results for the pest or weed control at 500 ppm in [4], in data set [5] and in data set [7] were 90 to 100%, 90 to 100% and 80 to 89%, respectively.
As for `O=C(NCC(F)(F)c1ccc(C2=CCCC2)cc1Cl)c1c(Oc2cccc(C(F)(F)F)c2)nnc2ccccc12` [I-073], the pest or weed control at 500 ppm was in the range of 80 to 89% in data set [9], 90 to 100% in data set [4] and 90 to 100% in [7]. The chromatographic logP in data set [1] turned out to be 5.4. For the same compound, the inhibition at 20 ppm in data set [2] and in data set [3] was 90 to 100% in each case.
Turning to `O=C(NCC(F)(F)c1ccc(Cl)cc1)c1c(Oc2cccc(C(F)F)c2)nnc2ccccc12` [I-034], the pest or weed control at 500 ppm in [9] is 80 to 89%; in data set [4], 90 to 100%; in [7] it was 90 to 100%. Also, in data set [1], the chromatographic logP amounted to 3.68. Also, the inhibition at 20 ppm in [6] and in data set [8] was 90 to 100% in each case.
Compound `C#Cc1cccc(Oc2cnc3ccccc3c2C(=O)NCC(F)(F)c2ccc(C)cc2C)c1` [I-215] came in with a chromatographic logP in data set [1] of 4.13. Further, the inhibition at 20 ppm in data set [2] is 90 to 100%; in data set [3] it was 90 to 100%; in data set [6] it was 90 to 100%; in [8], 80 to 89%. Besides, the pest or weed control at 500 ppm in data set [4] is 90 to 100%; in data set [5] it was 90 to 100%; in data set [7], 80 to 89%.
As to `O=C(N[C@H]1CCOc2ccccc21)c1c(Oc2cccc(C(F)(F)F)c2)nnc2ccccc12` [I-172], the chromatographic logP in data set [1] turned out to be 3.65. Besides, the inhibition at 20 ppm in data set [2], in data set [3], in data set [6] and in [8] was 90 to 100% throughout. For the same compound, the values for the pest or weed control at 500 ppm in [5] and in data set [7] were 80 to 89% and 90 to 100%, respectively.

Source of the values: patent US20230192617A1, “AZABICYCLIC(THIO)AMIDES AS FUNGICIDAL COMPOUNDS” (Bayer CropScience Aktiengesellschaft, priority 2020, published 2023).
